The source made the active and inactive calls.
Columns and labels:
[1] = molecular target: Induced myeloid leukemia cell differentiation protein Mcl-1 (Homo sapiens, UniProt Q07820); assay type: functional
[2] = inhibitors of intracellular T. cruzi replication, confirmation, NIH3T3 host cells, beta-gal luminescence (AID 2044); assay type: functional, cell-based;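 note: intracellular parasites grown in NIH/3T3 mouse fibroblasts as host cells; luminescent beta-galactosidase reporter signal from transgenic T. cruzi replicating inside host cells; inhibitors lower the luminescence signal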
[3] = cytotoxicity toward NIH3T3 fibroblasts, dose response, counter-screen, cell-based, ATP luminescence, mouse fibroblasts (AID 2010); assay type: functional;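 note: cells exposed to compound for about 90 hours before reading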
[4] = NIH-3T3 fibroblast cytotoxicity, dose response, cytotoxicity control, cell-based, fluorescence, Alamar Blue, secondary assay (AID 2327); assay type: functional;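 note: NIH-3T3 mouse fibroblasts cultured with fluconazole at 8 µg/mL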
[5] = molecular target: Histone-lysine N-methyltransferase NSD2 (Homo sapiens, UniProt O96028); assay type: biochemical
INS1 = assay: beta cell apoptosis inhibitors, cytokine rescue, dose response, luminescence, retest (AID 449756); assay type: functional, cell-based; conditions: Rattus norvegicus;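 note: cell death triggered by IL-1 beta plus TNF-alpha plus IFN-gamma mixture; protective hits raise ATP signal compared with cytokine alone wells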
Paired box protein Pax-8 = Paired box protein Pax-8 (Homo sapiens, UniProt Q06710); assay: inhibitors of PAX8-driven TPO luciferase reporter, dose response, RMG-I cells, cherry-pick (AID 687027); assay type: functional, cell-based;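 note: luciferase reporter driven by Pax8 target thyroperoxidase promoter measured by SteadyGlo luminescence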
[6] = C. albicans growth with fluconazole, confirmation, fluorescence, retest (AID 2467); assay type: functional, cell-based
[7] = molecular target: Eukaryotic translation initiation factor 4E (Mus musculus, UniProt P63073); assay: eIF4E–eIF4G protein interaction inhibitors, dose response, biochemical, TR-FRET (AID 855); assay type: functional;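 note: potency for disrupting eIF4E binding to eIF4GI seen as loss of FRET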
Caspase-6 = molecular target: T1, Caspase-6 (Homo sapiens, UniProt P55212); assay: human caspase-6 inhibitors, dose response, biochemical, VEID-R110 fluorescence, cherry-pick (AID 720632)
T1 sequence (P55212 whole entry): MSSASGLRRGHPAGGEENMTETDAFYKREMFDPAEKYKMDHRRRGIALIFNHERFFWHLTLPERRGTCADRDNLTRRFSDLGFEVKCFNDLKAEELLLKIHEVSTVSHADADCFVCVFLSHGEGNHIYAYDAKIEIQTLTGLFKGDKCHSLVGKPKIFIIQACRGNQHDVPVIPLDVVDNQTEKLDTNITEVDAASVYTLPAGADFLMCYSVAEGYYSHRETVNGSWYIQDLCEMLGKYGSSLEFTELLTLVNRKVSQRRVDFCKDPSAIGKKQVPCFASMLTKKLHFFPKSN

[8] = molecular target: T2, Low molecular weight phosphotyrosine protein phosphatase (Homo sapiens, UniProt P24666); assay type: functional; conditions: read-out: IC50_Mean;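 note: Dose-response confirmation assay measuring inhibition of LMPTP enzyme activity by fluorescence intensity read-out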
T2 sequence (P24666 whole entry): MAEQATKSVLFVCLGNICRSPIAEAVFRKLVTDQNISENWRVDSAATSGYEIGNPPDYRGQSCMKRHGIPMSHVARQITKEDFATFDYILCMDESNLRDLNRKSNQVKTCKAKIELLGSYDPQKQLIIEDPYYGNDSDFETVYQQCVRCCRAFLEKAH

Caspase-7 = Caspase-7 (Homo sapiens, UniProt P55210); assay: human caspase-7 inhibitors, dose response, selectivity assay for caspase-6 inhibitor project, biochemical, DEVD-R110 fluorescence, cherry-pick (AID 743295)
[9] = molecular target: Disintegrin and metalloproteinase domain-containing protein 17 (Homo sapiens, UniProt P78536); assay: ADAM17 protease inhibitors, dose response, counter-screen for ADAM10 exosite inhibitor project, biochemical, quenched FRET substrate (AID 743253)
[10] = ADAM10 inhibitors, peptide cleavage, dose response, biochemical, QFRET (AID 743254);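 note: ADAM10 enzyme with the DM2 quenched FRET peptide as substrate; EDANS fluorescence gain as the protease cuts the substrate; inhibitor potency against ADAM10 proteolytic activity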
[11] = molecular target: T3, Oxysterols receptor LXR-beta (Homo sapiens, UniProt P55055); assay type: functional, cell-based
T3 sequence (P55055 whole entry): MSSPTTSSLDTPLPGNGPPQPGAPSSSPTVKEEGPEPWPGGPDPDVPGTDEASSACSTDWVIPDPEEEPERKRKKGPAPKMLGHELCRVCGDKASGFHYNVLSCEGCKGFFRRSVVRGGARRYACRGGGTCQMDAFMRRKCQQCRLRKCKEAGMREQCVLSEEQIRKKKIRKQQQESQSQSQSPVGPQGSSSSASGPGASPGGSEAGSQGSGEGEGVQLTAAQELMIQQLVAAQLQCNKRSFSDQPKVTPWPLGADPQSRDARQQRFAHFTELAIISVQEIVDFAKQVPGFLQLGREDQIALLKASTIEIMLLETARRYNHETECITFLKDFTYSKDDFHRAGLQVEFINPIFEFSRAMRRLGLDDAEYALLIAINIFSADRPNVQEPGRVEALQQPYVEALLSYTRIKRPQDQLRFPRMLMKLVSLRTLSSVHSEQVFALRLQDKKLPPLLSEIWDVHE

[12] = molecular target: T3, Oxysterols receptor LXR-beta; assay type: functional, cell-based; remark: listed apart in the source
[13] = HepG2 cell cytotoxicity, dose response, cytotoxicity control, cherry-picked samples (AID 1159577); assay type: functional, cell-based
[14] = P. falciparum Dd2 growth inhibitors, dose response, SYBR Green, cherry-picked samples (AID 1159567); assay type: functional, cell-based
[15] = off-target signal loss in HeLa-CEM21 co-culture – HeLa F-luc CTL cells, cherry-picked, counter-screen for HIV-1 Env fusion inhibitor project, dose response (AID 652040); assay type: functional, cell-based;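 note: potency for signal decrease marking cytotoxic or nonspecific inhibition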
HEK293 [16] = assay: cells; conditions: Homo sapiens
[17] = inhibitors of clade B AD8 Env fusion, dose response, cell-based, cherry-pick (AID 652062); assay type: functional;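 note: luciferase signal from cell-cell fusion driven by HIV-1 clade B AD8 Env; potency is for inhibitors of fusion seen as a drop in luminescence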
[18] = inhibitors of HIV Env-driven cell fusion, dose response, cherry-pick (AID 652057); assay type: functional, cell-based
[19] = P. falciparum 3D7-ScDHODH growth inhibitors, dose response, SYBR Green, dry powder samples (AID 1159570); assay type: functional, cell-based;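 note: parasite growth measured after 72 hours of compound exposure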
HEK293 [20] = assay: cells; conditions: Homo sapiens; remark: listed apart in the source
[21] = HepG2 cell cytotoxicity, dose response, cytotoxicity control, plate reader, dry powder samples (AID 1159569); assay type: functional, cell-based;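 note: inhibitor potency with signal falling toward the positive control level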
[22] = P. falciparum ATP4 D1247Y mutant growth inhibitors, dose response, NITD609-resistant line, SYBR Green, dry powder (AID 1159571); assay type: functional, cell-based;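 note: parasites synchronized at ring stage by sorbitol before testing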
[23] = P. falciparum Dd2 growth inhibitors, dose response, SYBR Green, dry powder samples (AID 1159566); assay type: functional, cell-based;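 note: potency for growth inhibition with lower SYBR green DNA signal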
[24] = ZM109 Env clade C HIV-1 fusion inhibitors, dose response, HeLa effector, CEM target cells, luciferase, cherry-pick (AID 652058); assay type: functional, cell-based
[25] = CEM21 lymphoblast cell cytotoxicity, dose response, cytotoxicity control for viral fusion inhibitor project, CellTiter-Glo luminescence, cherry-picked (AID 652042); assay type: functional, cell-based;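 note: potency for signal decrease meaning cytotoxicity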

Paired box protein Pax-8, sequence (Q06710 whole entry): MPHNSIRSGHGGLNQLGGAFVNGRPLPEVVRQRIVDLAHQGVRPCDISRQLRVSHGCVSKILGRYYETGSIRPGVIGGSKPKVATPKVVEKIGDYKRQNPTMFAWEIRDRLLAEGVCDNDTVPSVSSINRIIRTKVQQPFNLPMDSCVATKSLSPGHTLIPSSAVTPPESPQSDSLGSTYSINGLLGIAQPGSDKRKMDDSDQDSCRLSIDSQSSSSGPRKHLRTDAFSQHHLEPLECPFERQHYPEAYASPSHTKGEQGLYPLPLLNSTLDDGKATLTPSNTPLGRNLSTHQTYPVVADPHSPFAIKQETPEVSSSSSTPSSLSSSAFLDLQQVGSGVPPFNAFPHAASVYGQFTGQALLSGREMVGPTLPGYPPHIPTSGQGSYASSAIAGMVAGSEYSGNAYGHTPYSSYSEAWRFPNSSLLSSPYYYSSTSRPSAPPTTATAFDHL
Eukaryotic translation initiation factor 4E, sequence (P63073 whole entry): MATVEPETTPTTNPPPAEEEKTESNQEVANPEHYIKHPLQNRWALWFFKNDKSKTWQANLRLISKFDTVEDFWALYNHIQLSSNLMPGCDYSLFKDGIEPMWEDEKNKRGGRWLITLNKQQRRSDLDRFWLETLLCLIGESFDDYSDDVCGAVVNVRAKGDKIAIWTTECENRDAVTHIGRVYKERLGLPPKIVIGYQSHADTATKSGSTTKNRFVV
Histone-lysine N-methyltransferase NSD2, sequence (O96028 whole entry): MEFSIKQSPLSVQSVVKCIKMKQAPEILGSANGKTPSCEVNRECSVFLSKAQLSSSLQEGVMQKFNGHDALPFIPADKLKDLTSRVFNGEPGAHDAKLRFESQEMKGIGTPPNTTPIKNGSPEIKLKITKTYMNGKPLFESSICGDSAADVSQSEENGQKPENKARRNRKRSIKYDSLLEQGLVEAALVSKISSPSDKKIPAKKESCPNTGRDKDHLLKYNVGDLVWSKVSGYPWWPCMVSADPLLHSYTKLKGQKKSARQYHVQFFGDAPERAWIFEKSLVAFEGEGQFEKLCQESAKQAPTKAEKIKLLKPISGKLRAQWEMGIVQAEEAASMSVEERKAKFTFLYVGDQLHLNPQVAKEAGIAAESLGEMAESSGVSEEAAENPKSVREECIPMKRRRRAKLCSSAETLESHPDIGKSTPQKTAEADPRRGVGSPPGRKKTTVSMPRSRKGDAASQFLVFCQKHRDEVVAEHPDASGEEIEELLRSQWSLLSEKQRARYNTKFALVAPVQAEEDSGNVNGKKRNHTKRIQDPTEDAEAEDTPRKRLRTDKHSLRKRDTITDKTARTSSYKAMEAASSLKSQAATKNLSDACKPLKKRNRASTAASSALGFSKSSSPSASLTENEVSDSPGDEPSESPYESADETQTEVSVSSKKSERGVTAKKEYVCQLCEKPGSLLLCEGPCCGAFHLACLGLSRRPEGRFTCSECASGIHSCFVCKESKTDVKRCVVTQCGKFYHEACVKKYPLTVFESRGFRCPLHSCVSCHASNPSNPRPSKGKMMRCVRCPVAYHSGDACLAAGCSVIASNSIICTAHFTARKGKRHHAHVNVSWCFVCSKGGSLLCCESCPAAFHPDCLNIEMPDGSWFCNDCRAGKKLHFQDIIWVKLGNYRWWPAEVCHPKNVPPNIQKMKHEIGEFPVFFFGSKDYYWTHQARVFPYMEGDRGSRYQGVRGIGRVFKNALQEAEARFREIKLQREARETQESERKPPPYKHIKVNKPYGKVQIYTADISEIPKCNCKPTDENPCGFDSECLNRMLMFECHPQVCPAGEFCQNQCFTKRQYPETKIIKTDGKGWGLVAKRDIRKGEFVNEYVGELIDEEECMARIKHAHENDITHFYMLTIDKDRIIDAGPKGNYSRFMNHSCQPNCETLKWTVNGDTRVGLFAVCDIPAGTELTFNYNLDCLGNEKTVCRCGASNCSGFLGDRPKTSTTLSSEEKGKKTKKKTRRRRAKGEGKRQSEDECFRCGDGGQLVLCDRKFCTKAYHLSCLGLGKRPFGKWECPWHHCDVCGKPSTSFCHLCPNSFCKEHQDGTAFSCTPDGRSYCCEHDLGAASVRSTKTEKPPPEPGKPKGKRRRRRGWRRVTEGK
Disintegrin and metalloproteinase domain-containing protein 17, sequence (P78536 whole entry, the tested form may be a part): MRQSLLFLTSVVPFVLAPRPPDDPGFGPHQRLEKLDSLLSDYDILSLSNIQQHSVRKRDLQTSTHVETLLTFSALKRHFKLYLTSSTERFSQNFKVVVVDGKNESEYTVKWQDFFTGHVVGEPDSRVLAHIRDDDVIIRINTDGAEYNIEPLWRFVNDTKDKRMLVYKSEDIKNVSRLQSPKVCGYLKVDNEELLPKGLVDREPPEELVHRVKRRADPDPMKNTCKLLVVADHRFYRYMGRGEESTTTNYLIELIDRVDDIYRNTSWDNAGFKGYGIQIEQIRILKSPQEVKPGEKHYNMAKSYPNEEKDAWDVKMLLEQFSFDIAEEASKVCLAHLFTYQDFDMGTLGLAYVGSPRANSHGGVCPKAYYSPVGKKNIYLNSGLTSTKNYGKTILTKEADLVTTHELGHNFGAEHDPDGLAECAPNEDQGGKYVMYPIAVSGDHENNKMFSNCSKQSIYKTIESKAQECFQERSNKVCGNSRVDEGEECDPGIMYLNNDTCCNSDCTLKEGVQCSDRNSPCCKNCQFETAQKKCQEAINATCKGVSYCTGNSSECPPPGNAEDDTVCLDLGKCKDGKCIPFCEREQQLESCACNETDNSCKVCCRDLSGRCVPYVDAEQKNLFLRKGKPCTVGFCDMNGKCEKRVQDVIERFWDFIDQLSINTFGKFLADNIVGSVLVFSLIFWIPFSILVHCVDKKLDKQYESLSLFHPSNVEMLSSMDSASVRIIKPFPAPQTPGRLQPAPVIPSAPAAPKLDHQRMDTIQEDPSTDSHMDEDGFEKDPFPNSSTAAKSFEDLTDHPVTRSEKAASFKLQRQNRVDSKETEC
Induced myeloid leukemia cell differentiation protein Mcl-1, sequence (Q07820 whole entry): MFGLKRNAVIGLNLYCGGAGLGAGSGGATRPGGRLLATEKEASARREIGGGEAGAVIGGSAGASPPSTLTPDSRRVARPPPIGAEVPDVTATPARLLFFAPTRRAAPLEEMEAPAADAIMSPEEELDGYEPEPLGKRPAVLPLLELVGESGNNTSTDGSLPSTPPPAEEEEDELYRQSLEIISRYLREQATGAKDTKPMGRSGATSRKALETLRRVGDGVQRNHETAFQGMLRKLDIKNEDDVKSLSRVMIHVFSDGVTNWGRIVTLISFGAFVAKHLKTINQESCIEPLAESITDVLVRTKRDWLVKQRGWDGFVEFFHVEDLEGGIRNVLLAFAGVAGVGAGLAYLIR
Caspase-7, sequence (P55210 24-198 limits assumed): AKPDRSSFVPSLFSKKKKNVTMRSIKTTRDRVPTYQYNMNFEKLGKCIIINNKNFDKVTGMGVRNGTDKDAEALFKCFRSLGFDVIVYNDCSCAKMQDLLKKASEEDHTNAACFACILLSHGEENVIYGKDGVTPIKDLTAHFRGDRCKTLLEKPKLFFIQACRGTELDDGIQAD
Caspase-7, sequence (P55210 207-303 limits assumed): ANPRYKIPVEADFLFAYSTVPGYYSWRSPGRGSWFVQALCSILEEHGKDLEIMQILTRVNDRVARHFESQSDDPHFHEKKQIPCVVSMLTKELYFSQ

SMILES: CN1c2ccccc2N(C)C1(C)c1ccccc1
- IC50 [1]: 4.95 µM (active)
- EC50 [2]: 0.278 µM (active)
- EC50 [3]: > 60 µM (not active)
- EC50 [4]: > 150 µM (inactive)
- AC50 [5]: > 20 µM (inactive)
- AC50 (INS1): 0.283 µM (active)
- AC50 (Paired box protein Pax-8): 9.4 µM (active)
- EC50 [6]: > 38 µM (not active)
- IC50 [7]: > 64 µM (inactive)

SMILES: CCOC(=O)c1sc2nc(OCCN3CCOCC3)cc(C)c2c1N
- AC50 (Caspase-6): 2.18 µM (active)
- IC50 [8]: 61.1 µM (inactive)
- AC50 (Caspase-7): 45.2 µM (active)

SMILES: CCCCCCCCNS(=O)(=O)/C=C/c1ccccc1CNC(=O)OC(C)(C)C
- IC50 [9]: > 69.6 µM (inactive)
- IC50 [10]: > 7.73 µM (active)

SMILES: c1ccc(-c2noc(-c3cccc4ccccc34)n2)nc1
- EC50 (cells): > 67.5 µM (inactive)
- EC50 [11]: > 67.5 µM (inactive)

SMILES: c1ccc(CSc2ccc(-c3cccs3)nn2)cc1
- EC50 [12]: > 67.5 µM (inactive)

SMILES: C[C@H]1CN([C@@H](C)CO)C(=O)c2ccccc2-c2ccccc2CO[C@H]1CN(C)Cc1ccc(C(F)(F)F)cc1
- AC50 [13]: > 42 µM (inactive)
- AC50 [14]: 3.03 µM (active)

SMILES: Cc1ccc(S(=O)(=O)N(C)C[C@@H]2OCc3ccccc3-c3c(n(C)c4ccccc34)C(=O)N([C@H](C)CO)C[C@@H]2C)cc1
- AC50 [15]: 1.66 µM (active)
- EC50 (HEK293 [16]): > 59.6 µM (inactive)
- AC50 [17]: 2.16 µM (active)
- AC50 [18]: 1.87 µM (active)
- AC50 [19]: 0.151 µM (active)
- EC50 (HEK293 [20]): > 59.6 µM (inactive)
- AC50 [21]: 52.3 µM (active)
- AC50 [22]: 0.106 µM (active)
- AC50 [23]: 0.0655 µM (active)
- AC50 [24]: 2 µM (active)
- AC50 [14]: 0.676 µM (active)
- AC50 [25]: 29.6 µM (active)
